Experimental data published in patent US20220204491A1, “FXR (NR1H4) MODULATING COMPOUNDS” (Gilead Sciences, Inc., priority 2019, published 2022).

Tests used:
CYP2B6 = target: T1, CYP2B6 (Homo sapiens, UniProt P20813); assay: CYP2B6 inhibition in human liver microsomes (bupropion probe); type: in vitro ADME; details: human liver microsomes 0.1 mg/mL, bupropion 110 μM, 0.1-25 μM compound
T1 construct: from tissue; host or cells: human liver microsomes
T1 sequence (P20813 1-491): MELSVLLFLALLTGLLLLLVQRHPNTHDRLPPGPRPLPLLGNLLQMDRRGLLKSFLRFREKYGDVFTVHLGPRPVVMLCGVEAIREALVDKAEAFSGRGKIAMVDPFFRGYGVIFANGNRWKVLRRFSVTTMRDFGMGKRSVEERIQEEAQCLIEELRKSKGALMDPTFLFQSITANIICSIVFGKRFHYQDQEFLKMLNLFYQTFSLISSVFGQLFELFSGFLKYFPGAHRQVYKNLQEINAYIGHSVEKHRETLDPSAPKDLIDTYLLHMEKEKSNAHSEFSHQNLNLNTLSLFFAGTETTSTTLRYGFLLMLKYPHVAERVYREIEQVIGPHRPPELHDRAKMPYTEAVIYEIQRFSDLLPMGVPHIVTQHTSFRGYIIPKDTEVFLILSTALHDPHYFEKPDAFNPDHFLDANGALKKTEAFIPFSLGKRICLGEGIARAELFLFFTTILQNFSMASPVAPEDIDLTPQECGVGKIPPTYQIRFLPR
Procedure: The compound of Formula (I) (Example 1) was assessed for CYP2C8, CYP3A4, and CYP2B6 inhibition and was compared against Comparative Example 1.
Six test compound concentrations (0.1, 0.25, 1, 2.5, 10, 25 μM in DMSO; final DMSO concentration 0.3%) are incubated with human liver microsomes (0.1 mg/mL) and NADPH (1 mM) in the presence of the probe substrate bupropion (110 μM) for 5 min at 37° C. The selective CYP2B6 inhibitor, ticlopidine, is screened alongside the test compounds as a positive control.
For each of the CYP2B6, CYP2C8, and CYP3A4 incubations, the reactions were terminated by methanol addition. The samples were then centrifuged and analyzed by LC-MS/MS. Formic acid in deionised water (final concentration 0.1%) containing internal standard was added to the final sample prior to analysis. A decrease in the formation of the metabolites compared to vehicle control was used to calculate IC50.

[1] = target: T2, human FXR alpha ligand binding domain (LBD) (Homo sapiens, UniProt Q96RI1); assay: FRET activity assay (FXR-LBD / SRC-1 cofactor peptide interaction, LANCE); type: biochemical; details: GST-FXR-LBD, biotinylated SRC-1 peptide 676-700
T2 construct: made in house; host or cells: E. coli BL21(DE3), vector pDEST15
T2 sequence (Q96RI1 187-472 isoform Q96RI1-2): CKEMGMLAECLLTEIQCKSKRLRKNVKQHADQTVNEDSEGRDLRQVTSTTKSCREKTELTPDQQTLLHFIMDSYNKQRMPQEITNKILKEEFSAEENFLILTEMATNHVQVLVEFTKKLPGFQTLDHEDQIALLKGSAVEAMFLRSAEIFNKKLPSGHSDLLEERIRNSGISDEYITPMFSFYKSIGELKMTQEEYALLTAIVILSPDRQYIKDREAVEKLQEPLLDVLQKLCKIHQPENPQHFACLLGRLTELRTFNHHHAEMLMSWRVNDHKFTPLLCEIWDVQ
Procedure: Determination of a ligand mediated cofactor peptide interaction to quantify ligand binding to the nuclear receptor FXR was performed as follows.
Preparation of human FXR alpha ligand binding domain (LBD): The human FXRalpha LBD was expressed in E. coli strain BL21(DE3) as an N-terminally GST tagged fusion protein. The DNA encoding the FXR ligand binding domain was cloned into vector pDEST15 (Invitrogen). Expression was under control of an IPTG inducible T7 promoter. The amino acid boundaries of the ligand binding domain were amino acids 187-472 of Database entry NM 005123 (RefSeq). Expression and purification of the FXR-LBD: An overnight preculture of a transformed E. coli strain was diluted 1:20 in LB-Ampicillin medium and grown at 30° C. to an optical density of OD600=0.4−0.6. Gene expression was then induced by addition of 0.5 mM IPTG. Cells were incubated an additional 6 h at 30° C., 180 rpm. Cells were collected by centrifugation (7000×g, 7 minutes, room temperature). […] The protein was analysed by SDS-Page.
The method measures the ability of putative ligands to modulate the interaction between the purified bacterially expressed FXR ligand binding domain (LBD) and a synthetic biotinylated peptide based on residues 676-700 of SRC-1 (LCD2, 676-700). […] The ligand binding domain (LBD) of FXR was expressed as fusion protein with GST in BL-21 cells using the vector pDEST15. […] For ease of handling and reduction of background from compound fluorescence LANCE technology makes use of generic fluorophore labels and time resolved detection Assays were done in a final volume of 25 μL in a 384 well plate, in a Tris-based buffer (20 mM Tris-HCl pH 7.5; 60 mM KCl, 5 mM MgCl2; 35 ng/μL BSA), containing 20-60 ng/well recombinantly expressed FXR-LBD fused to GST, 200-600 nM N-terminally biotinylated peptide, representing SRC1 aminoacids 676-700, 200 ng/well Streptavidin-xlAPC conjugate (Prozyme) and 6-10 ng/well Eu W1024-antiGST (Perkin Elmer). […] The LANCE signal was detected by a Perkin Elmer VICTOR2VTM Multilabel Counter. […]

SMILES | CYP2B6 inhibition (CYP2B6) | EC50 [1]
O=C(O)c1cnc(N2CC(O)(c3ccc(OCc4c(-c5c(Cl)cc(F)cc5Cl)noc4C4CC4)cc3Cl)C2)c(F)c1 [Comparative Example 1, 6-(3-(2-chloro-4-((5-cyclopropyl-3-(2,6-dichloro-4-fluorophenyl)isoxazol-4-yl)methoxy)phenyl)-3-hydroxyazetidin-1-yl)-5-fluoronicotinic acid] | inhibited CYP2B6 | 7.5 nM
O=C(O)c1ccc(N2CC(O)(c3ccc(OCc4c(-c5c(Cl)cc(F)cc5Cl)noc4C4CC4)cc3Cl)C2)nc1 [Example 1, 6-(3-(2-chloro-4-((5-cyclopropyl-3-(2,6-dichloro-4-fluorophenyl)isoxazol-4-yl)methoxy)phenyl)-3-hydroxyazetidin-1-yl)nicotinic acid] | did not inhibit CYP2B6 | 14.2 nM
O=C(O)c1ccc(N2CC(O)(c3ccc(OCc4c(-c5c(Cl)cccc5Cl)noc4C4CC4)cc3Cl)C2)nc1 [Comparative Example 2] | – | 3.4 nM
